pKi: −log10 of the molar value.
The compounds below were run against T1, rat EP4 receptor (Rattus norvegicus, UniProt P43114) (assay: Evaluation test on EP4 receptor affinity in rat ([3H]PGE2 receptor binding test)). Conditions: [3H]PGE2 0.3 nM, membrane fraction of rat EP4 expressing HEK293 cells.
T1 construct: expressed in transfected cells; host or cells: HEK293 cells, transient transfection with Lipofectamine 2000; membrane fraction used
Protocol: A rat EP4 receptor cDNA was subcloned into an expression vector (pcDNA3.1-V5-His-topo, manufactured by Invitrogen Corporation) to prepare a rat EP4 expression vector. HEK293 cells were cultured in a collagen type I-treated 15 cm dish (manufactured by Asahi Techno Glass Co., Ltd.) to a confluence of 70%. An Opti-MEM culture medium at 1.2 mL/dish and a transfection reagent (Lipofectamine 2000, manufactured by Invitrogen Corporation) at 60 μL/dish were mixed, followed by being left to stand at room temperature for 5 minutes. Then, the rat EP4 receptor expression vector at 15 μg/dish was added thereto, followed by being left to stand at room temperature for 30 minutes. The liquid mixture of the transfection reagent was added into the dish, followed by culturing for 20 to 24 hours. The cell culture was carried out in a CO2 incubator (37° C., 5% CO2).
The culture medium was removed by suction, 10 mL of cooled PBS was added thereto per 15 cm dish, and the cells were scraped using a cell scraper. After washed with cooled PBS (1,200 rpm, 4° C., 5 minutes), suspended in 6 mL/dish of cooled 20 mM Tris-HCl (pH 7.4; manufactured by Nacalai Tesque Inc., 5 mM EDTA included) and homogenized using a Polytron, the homogenate was centrifuged (26,000 rpm, 20 minutes, 4° C.). The obtained precipitate was resuspended in cooled 20 mM Tris-HCl and homogenized again using a Polytron, and the homogenate was centrifuged (26,000 rpm, 20 minutes, 4° C.). The obtained precipitate was resuspended in 50 mM HEPES (pH 7.5; manufactured by Dojindo Laboratories) at 1 mL per dish, homogenized using a Polytron, and freeze-stored at −80° C. as a membrane fraction. At this time, a part thereof was used for the measurement of the protein concentration. Measurement of the protein concentration was carried out using a Protein assay stain (manufactured by Bio-Rad Laboratories) in accordance with a standard Protocol as appended in duplicate.
[^3H]PGE2 50 μL (final concentration 0.3 nM; manufactured by Perkin Elmer Co., Ltd.), 100 μL (20 μg/well) of the membrane fraction prepared from the rat EP4 expression cell, and 50 μL of a test compound were mixed in a 96-well microplate (manufactured by Sumitomo Bakelite Co., Ltd.), incubated at room temperature for 1 hour, then filtered by suction on a microplate (UniFilter-96 GF/B, manufactured by Perkin Elmer Co., Ltd.) using a cell harvester (FilterMate Harvester, manufactured by Perkin Elmer Co., Ltd.), and washed three times with 300 μL/well of a cooled assay buffer (50 mM HEPES, 10 mM MgCl2). Dilution of [^3H]PGE2 and the membrane fraction was carried out using the assay buffer, and dilution of the test compound and the unlabeled PGE2 was carried out using dimethyl sulfoxide and the assay buffer. The UniFilter-96 GF/B was treated by preliminarily washing twice with 200 μL/well of the cooled assay buffer. The UniFilter-96 GF/B after filtration was dried in a dryer overnight, 50 μL/well of a liquid scintillation cocktail (MicroScint20, manufactured by Perkin Elmer Co., Ltd.) was added thereto, and the radioactivity was then measured using a liquid scintillation counter for a microplate (TopCount, manufactured by Perkin Elmer Co., Ltd.). For measurement of the non-specific binding, an unlabeled PGE2 (final concentration 1 μM; manufactured by Cayman Chemical Company) was added. All of the measurements were carried out in duplicate, and the specific binding amount was determined by subtracting the non-specific binding amount from the total binding amount.
According to the test method as described above, the rat EP4 receptor affinity (Ki) of the compound of the present invention was measured. […] In addition, Ex means Example Compound No.

T1 sequence (P43114 whole entry): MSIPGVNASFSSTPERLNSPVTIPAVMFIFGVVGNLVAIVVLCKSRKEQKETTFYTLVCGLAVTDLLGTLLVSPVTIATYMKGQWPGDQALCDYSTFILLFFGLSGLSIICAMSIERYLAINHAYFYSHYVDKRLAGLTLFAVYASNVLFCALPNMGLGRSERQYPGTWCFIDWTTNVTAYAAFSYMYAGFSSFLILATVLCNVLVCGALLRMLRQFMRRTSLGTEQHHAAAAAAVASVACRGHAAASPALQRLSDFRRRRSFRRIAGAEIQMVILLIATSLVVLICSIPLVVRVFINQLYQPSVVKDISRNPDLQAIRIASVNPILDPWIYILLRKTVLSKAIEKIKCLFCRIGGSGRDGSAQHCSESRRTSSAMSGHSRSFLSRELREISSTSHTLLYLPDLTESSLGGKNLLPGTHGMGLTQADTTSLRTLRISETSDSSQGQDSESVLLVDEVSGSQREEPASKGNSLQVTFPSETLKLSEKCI

Compound	pKi
O=C(O)c1ccc(CCn2c(CCc3ccccc3OC(F)(F)F)c(Cl)cc(Cl)c2=O)cc1 [Example 350]	7.72
COc1cccc(OCc2c(Br)cc(Br)c(=O)n2CCc2ccc(C(=O)O)cc2)c1 [Example 2, 4-(2-{3,5-dibromo-6-[(3-methoxyphenoxy)methyl]-2-oxopyridin-1(2H)-yl}ethyl)benzoic acid]	7.21
O=C(O)c1ccc(CCn2c(CCc3cccc(OC(F)(F)F)c3)c(C3CC3)cc(Cl)c2=O)cc1 [Example 122]	7.92
O=C(O)c1ccc(CCn2c(/C=C/c3ccccc3OC(F)(F)F)c(Cl)cc(Cl)c2=O)cc1 [Example 106]	7.52
CC(C)Oc1ccccc1OCc1c(Cl)cc(Cl)c(=O)n1CCc1ccc(C(=O)O)cc1 [Example 74]	8.00
COc1cccc(COc2c(Br)cc(Cl)cc2CCc2ccc(C(=O)O)cc2)c1 [4-(2-{3-bromo-5-chloro-2-[(3-methoxybenzyl)oxy]phenyl}ethyl)benzoic acid, reference compound]	7.57
COc1cccc(/C=C/c2c(Br)cc(Br)c(=O)n2CCCCCCC(=O)O)c1 [Example 15]	7.46
CC(C)c1cccc(/C=C/c2c(Cl)cc(Cl)c(=O)n2CCc2ccc(C(=O)O)cc2)c1 [Example 91]	8.03

Compounds with a higher pKi, results first:

pKi	Compound
8.77	CCCOc1cccc(/C=C/c2c(Cl)cc(Cl)c(=O)n2CCc2ccc(C(=O)O)cc2)c1 [Example 99]
8.36	CCc1cccc(/C=C/c2c(Br)ccc(=O)n2CCc2ccc(C(=O)O)cc2)c1 [Example 124]
8.09	CCc1cccc(OCc2c(C3CC3)cc(Cl)c(=O)n2CCc2ccc(C(=O)O)cc2)c1 [Example 139]
8.21	CCOc1ccccc1CCc1c(Cl)cc(Cl)c(=O)n1CCc1ccc(C(=O)O)cc1 [Example 90]
8.10	O=C(O)c1ccc(CCn2c(/C=C/c3cccc(OC(F)(F)F)c3)c(C3CC3)cc(Cl)c2=O)cc1 [Example 120]
8.96	CCCc1cccc(OCc2c(Cl)cc(Cl)c(=O)n2CCc2ccc(C(=O)O)cc2)c1 [Example 171]
8.31	O=C(O)c1ccc(CCn2c(/C=C/c3cccc(OC(F)(F)F)c3)c(Cl)ccc2=O)cc1 [Example 126]
8.15	COc1cccc(/C=C/c2c(Br)cc(Br)c(=O)n2CCc2ccc(C(=O)O)cc2)c1 [Example 4, 4-(2-{3,5-dibromo-6-[(E)-2-(3-methoxyphenyl)vinyl]-2-oxopyridin-1(2H)-yl}ethyl)benzoic acid]
8.12	CCc1cccc(/C=C/c2c(Cl)ccc(=O)n2CCc2ccc(C(=O)O)cc2)c1 [Example 125]
8.55	CC(C)c1cccc(OCc2c(Cl)cc(Cl)c(=O)n2CCc2ccc(C(=O)O)cc2)c1 [Example 1, 4-(2-{3,5-dichloro-6-[(3-isopropylphenoxy)methyl]-2-oxopyridin-1(2H)-yl}ethyl)benzoic acid]

The compounds below were run on hindlimb blood flow in anesthetized rat (assay: Hindlimb blood flow increasing action in anesthetized rat). Conditions: oral, Wistar male rats.
Format: in vivo
Protocol: Wistar male rats were used. The test compound was orally administered, and after 2 hours, the hindlimb blood was measured using a laser blood flow imaging apparatus (PIM II, manufactured by Integral Corporation). At 20 minutes before the measurement, 60 mg/kg of pentobarbital was intraperitoneally administered to conduct anesthesia.

Compound	lowest effective dose causing a blood flow increasing action of 120% or more
COc1cccc(COc2c(Br)cc(Cl)cc2CCc2ccc(C(=O)O)cc2)c1 [4-(2-{3-bromo-5-chloro-2-[(3-methoxybenzyl)oxy]phenyl}ethyl)benzoic acid, reference compound]	3 mg/kg

Source: patent US20100179137A1, “PYRIDONE COMPOUND” (priority 2007, published 2010)
